Assay results: article PMC5797143, “Epigenetic modulation of inflammation and synaptic plasticity promotes resilience against stress in mice” (Nature Communications, 2018)

Key:
[1] = system: Toll-like receptor-4 mediated signaling pathways (JNK, p38, ERK, AKT); test: Multiplex ELISA of phosphorylated signaling proteins in PBMCs after LPS; type: cell-based, mouse
Procedure: To investigate how DHCA may attenuate IL-6 generation, we tested the effect of DHCA on Toll-like receptor-4 mediated signaling pathways. PBMCs were pretreated with DHCA and stimulated with LPS using the same protocol as during screening. Samples were taken at 0, 30 min, 60 min, 6 h and 16 h following LPS stimulation and cell lysates were subjected to a multiplex ELISA assay. […] Based on evidence that DNA methylation at a single CpG in the human IL-6 promoter region effectively alters IL-6 expression, we next tested whether DHCA can modulate IL-6 gene expression through methylation mechanisms. We treated PBMC cells with DHCA and measured the expression of enzymes essential for DNA methylation/demethylation. […] To investigate how methylation influences IL-6 gene expression, we employed the CpG-free luciferase reporter system. We cloned a ~280 bp CpG rich DNA segment from the mouse IL-6 promoter into a promoterless CpG-free reporter construct and transfected into N2a cells. We found the CpG-rich IL-6 promoter segment presented no inherent promoter activity as reflected by no differences in luciferase activity compared to the control construct (Fig. 2f). […] We then cloned CpG rich DNA segments from IL-6 introns 1, 3 or 4 into the CpG-free luciferase reporter construct with a minimal EF1 promoter and no enhancer activity. […] In contrast, the CpG-rich region of IL-6 intron 4 presented no observable enhancer activity (Fig. 2g). […] To test whether DHCA may influence the expression of other pro-inflammatory factors, we measured the level of secreted cytokines following LPS stimulation (Supplementary Fig. 3).
Luminex xMAP multiplexed immunoassays were used to evaluate the levels of phosphorylated proteins in PBMCs pre-treated with DHCA for 16 h followed by LPS stimulation. PBMCs were washed once with PBS and immediately lysed with MilliplexMAP Cell Signaling Universal Lysis Buffer and applied to the assay following manufacturer’s instruction (EMD Millipore). The phosphoprotein analytes used were: AKT (Ser473), JNK (Thr183/Tyr185), ERK (Thr185/Tyr187), p38 […] (Millipore, MA). Multiplex MAP mouse cytokine/chemokine Panel (EMD Millipore) was used to measure the levels of 32 cytokines/chemokines in mouse plasma or PBMC cultures.

[2] = system: DNA-methyltransferase 1 (DNMT1); test: Expression of DNA methylation/demethylation enzymes in PBMCs; type: cell-based, mouse
Procedure: To investigate how DHCA may attenuate IL-6 generation, we tested the effect of DHCA on Toll-like receptor-4 mediated signaling pathways. PBMCs were pretreated with DHCA and stimulated with LPS using the same protocol as during screening. Samples were taken at 0, 30 min, 60 min, 6 h and 16 h following LPS stimulation and cell lysates were subjected to a multiplex ELISA assay. […] Based on evidence that DNA methylation at a single CpG in the human IL-6 promoter region effectively alters IL-6 expression, we next tested whether DHCA can modulate IL-6 gene expression through methylation mechanisms. We treated PBMC cells with DHCA and measured the expression of enzymes essential for DNA methylation/demethylation. […] To investigate how methylation influences IL-6 gene expression, we employed the CpG-free luciferase reporter system. […] To test whether DHCA may influence the expression of other pro-inflammatory factors, we measured the level of secreted cytokines following LPS stimulation (Supplementary Fig. 3).
Total RNA from MSN-enriched cultures or brain NAc was isolated using the RNeasy Mini Kit (Qiagen, Valencia, CA, USA) and reverse transcribed. Gene expression was measured in four replicates by quantitative RT-PCR using Maxima SYBR Green master mix (Fermentas) in ABI Prism 7900HT. […]

[3] = 30 min and 60 min following LPS, no further changes at 6 h and 16 h
[4] = PBMCs, DHCA pretreatment, 0, 30 min, 60 min, 6 h, 16 h after LPS

## O=C(O)CCc1ccc(O)c(O)c1 [DHCA, 3(3,4-dihydroxy-phenyl) propionic acid]
[1]; [3]
  decrease in AKT activation: ~ 10%
  decrease in ERK activation: ~ 10%
[1]; [4]
  activation (phosphorylation) of JNK: no effect
  activation (phosphorylation) of p38: no effect
[2]
  expression of DNMT1: significantly reduced
